According to patent publication US20240034737A1, “Heterocyclic Derivatives as P2X7 Receptor Antagonists” (BREYE THERAPEUTICS APS, priority 2020, published 2024):

Assays:
P2X7 receptor = P2X7 receptor (Homo sapiens (Human), UniProt Q99572); assay: Human P2X7 channel calcium-influx assay (Fluo-8 NW, FLIPR TETRA, Bz-ATP stimulation); type: cell-based; conditions: HEK-293 cells stably transfected with P2X7 receptor, Low Divalent Cation Assay Buffer, read-out: hP2X7 IC50
Experimental: (§1) Extracellular binding of Bz-ATP to P2X7 receptor opens the channel and allows Ca^2+ influx into the cells. This Ca^2+ entry was measured in HEK-293 cells stably transfected with P2X7 receptor using Screen Quest™ Fluo-8 No Wash Calcium Assay Kit (AAt Bioquest®, cat. 36316). Once inside the cell, the lipophilic blocking groups of Fluo-8 are cleaved by non-specific cell esterases, resulting in a negatively-charged fluorescent dye that stays inside cells. Its fluorescence increases upon binding to calcium. When HEK-293/P2X7 cells are stimulated with Bz-ATP, Ca^2+ enters the cells and the fluorescence of Fluo-8 NW increases.
(§2) HEK-293 cells stably transfected with P2X7 receptor were seeded overnight in growth medium at 10,000 to 20,000 cells/well in 384-well plate. 24 hours later, the medium was removed, and the cells were pre-loaded at RT for 1 hour with 20 μL/w of Fluo-8 NW. Then 10 μL/w of test compounds and reference antagonist A438079 at 3X-concentration were injected with the […] and the kinetic response over a period of five minutes was monitored.

CYP4503A4 = CYP4503A4 metabolic induction (mRNA expression) in human cryopreserved platable hepatocytes; type: in vitro ADME; conditions: 10 μM test compound, two days treatment, mRNA by QuantiGene Plex 2.0
Experimental: In Vitro Evaluation of Test Compounds for CYP4503A4 Metabolic Induction Using Human Liver Hepatocytes.
CYP induction assessment was performed using human cryopreserved platable hepatocytes. Test compound was assessed at three or six different concentrations in duplicate.
A sandwich culture of platable cryopreserved hepatocytes was used with one day recovery period after plating. Assessment of cell morphology and confluency was performed using a phase-contrast microscope for representative wells.
The plated hepatocyte cell monolayers were treated with test compound, negative and positive controls for two days changing medium every 24 hours. On the fourth day, assessment of cell morphology and confluency was repeated to ensure cell monolayer integrity. Assessment of cell morphology and confluency was performed using a phase-contrast microscope for representative wells.
Cell monolayers were assessed for test compound cytotoxicity by an adenosine triphosphate (ATP) content assay in a separate plate.
Expression levels of mRNA for CYP1A2, CYP2B6, and CYP3A4 were evaluated by the QuantiGene® Plex 2.0 methodology.

mP2X7 = mP2X7 (Mus musculus (Mouse), UniProt Q9Z1M0); assay: mP2X7 channel calcium-influx assay (Fluo-8 NW, FLIPR TETRA, Bz-ATP stimulation); type: cell-based
Experimental: as §1, §2

mP2X7, sequence (Q9Z1M0 whole entry): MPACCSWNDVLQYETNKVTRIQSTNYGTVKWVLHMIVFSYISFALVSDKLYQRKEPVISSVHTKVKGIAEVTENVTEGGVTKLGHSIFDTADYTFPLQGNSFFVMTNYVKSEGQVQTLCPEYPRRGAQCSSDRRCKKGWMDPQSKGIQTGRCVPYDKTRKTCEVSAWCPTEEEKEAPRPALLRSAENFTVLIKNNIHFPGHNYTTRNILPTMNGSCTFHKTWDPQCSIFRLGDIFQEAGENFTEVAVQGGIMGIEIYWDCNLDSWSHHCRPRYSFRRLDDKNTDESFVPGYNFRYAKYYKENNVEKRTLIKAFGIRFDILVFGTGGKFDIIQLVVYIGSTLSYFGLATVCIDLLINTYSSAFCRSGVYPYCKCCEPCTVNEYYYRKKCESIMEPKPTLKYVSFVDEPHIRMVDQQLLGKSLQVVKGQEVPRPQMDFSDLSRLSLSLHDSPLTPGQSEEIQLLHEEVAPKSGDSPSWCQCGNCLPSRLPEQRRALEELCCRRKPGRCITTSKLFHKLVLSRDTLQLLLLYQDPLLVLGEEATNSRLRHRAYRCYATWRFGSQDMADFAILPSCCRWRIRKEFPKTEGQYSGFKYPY
P2X7 receptor, sequence (Q99572 whole entry): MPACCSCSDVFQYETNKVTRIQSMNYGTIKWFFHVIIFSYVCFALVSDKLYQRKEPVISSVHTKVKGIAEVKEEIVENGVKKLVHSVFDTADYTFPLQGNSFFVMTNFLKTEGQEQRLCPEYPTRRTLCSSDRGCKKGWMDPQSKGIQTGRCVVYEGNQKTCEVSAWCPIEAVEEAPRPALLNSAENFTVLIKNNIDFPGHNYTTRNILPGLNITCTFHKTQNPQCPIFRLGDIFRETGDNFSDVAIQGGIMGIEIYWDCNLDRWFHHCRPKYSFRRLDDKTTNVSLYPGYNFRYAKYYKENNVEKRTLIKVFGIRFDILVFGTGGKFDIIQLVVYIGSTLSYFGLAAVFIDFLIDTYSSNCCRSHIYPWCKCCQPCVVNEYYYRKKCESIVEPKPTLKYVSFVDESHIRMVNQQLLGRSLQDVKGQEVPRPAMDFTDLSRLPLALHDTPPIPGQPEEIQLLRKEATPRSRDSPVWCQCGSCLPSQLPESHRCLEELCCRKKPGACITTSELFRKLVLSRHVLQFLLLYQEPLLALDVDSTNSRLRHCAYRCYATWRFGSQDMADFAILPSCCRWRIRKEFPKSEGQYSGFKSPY

IC50 (P2X7 receptor) [µM] | CYP4503A4 mRNA fold increase at 10 μM (CYP4503A4) [fold] | IC50 (mP2X7) [µM] | SMILES
0.0359 | 4.8 | 0.0369 | O=C(NCC(c1scnc1C(F)F)N1CCC(Oc2cccnc2)CC1)c1c(F)cccc1Cl (centres unmarked) [Example 2, 2-chloro-N-{2-[4-(difluoromethyl)-1,3-thiazol-5-yl]-2-[4-(pyridin-3-yloxy)piperidin-1-yl]ethyl}-6-fluorobenzamide]
0.0377 | 4.4 | 0.0808 | O=C(NCC(c1scnc1C(F)F)N1CCC(Oc2ccncc2)CC1)c1c(F)cccc1Cl (centres unmarked) [Example 3, 2-chloro-N-{2-[4-(difluoromethyl)-1,3-thiazol-5-yl]-2-[4-(pyridin-4-yloxy)piperidin-1-yl]ethyl}-6-fluorobenzamide]
0.0237 | 5.0 | 0.0269 | O=C(NCC(c1scnc1C(F)F)N1CCC(Oc2cncc(F)c2)CC1)c1c(F)cccc1Cl (centres unmarked) [Example 5, 2-chloro-N-{2-[4-(difluoromethyl)-1,3-thiazol-5-yl]-2-{4-[(5-fluoropyridin-3-yl)oxy]piperidin-1-yl}ethyl}-6-fluorobenzamide]
0.0326 | 5.6 | 0.0289 | O=C(NCC(c1scnc1C(F)F)N1CCC(Oc2ncccc2F)CC1)c1c(F)cccc1Cl (centres unmarked) [Example 7, 2-chloro-N-{2-[4-(difluoromethyl)-1,3-thiazol-5-yl]-2-{4-[(3-fluoropyridin-2-yl)oxy]piperidin-1-yl}ethyl}-6-fluorobenzamide]
0.0478 | 2.2 | 0.17 | Cc1cc(COC2CCN(C(CNC(=O)c3c(F)cccc3Cl)c3scnc3C(F)F)CC2)no1 (centres unmarked) [Example 8, 2-chloro-N-{2-[4-(difluoromethyl)-1,3-thiazol-5-yl]-2-{4-[(5-methyl-1,2-oxazol-3-yl)methoxy]piperidin-1-yl}ethyl}-6-fluorobenzamide]
0.064 | 2.6 | 0.0539 | Cc1noc(C)c1COC1CCN(C(CNC(=O)c2c(F)cccc2Cl)c2scnc2C(F)F)CC1 (centres unmarked) [Example 9, 2-chloro-N-{2-[4-(difluoromethyl)-1,3-thiazol-5-yl]-2-{4-[(dimethyl-1,2-oxazol-4-yl)methoxy]piperidin-1-yl}ethyl}-6-fluorobenzamide]
0.0505 | 7.9 | 0.183 | Cc1nsc(OC2CCN(C(CNC(=O)c3c(F)cccc3Cl)c3scnc3C(F)F)CC2)n1 (centres unmarked) [Example 11, 2-Chloro-N-{2-[4-(difluoromethyl)-1,3-thiazol-5-yl]-2-{4-[(3-methyl-1,2,4-thiadiazol-5-yl)oxy]piperidin-1-yl}ethyl}-6-fluorobenzamide]
0.0228 |  | 0.0152 | Cc1cccnc1OCC1CCN(C(CNC(=O)c2c(F)cccc2Cl)c2scnc2C(F)F)CC1 (centres unmarked) [Example 99, 2-Chloro-N-{2-[4-(difluoromethyl)-1,3-thiazol-5-yl]-2-(4-{[(3-methylpyridin-2-yl)oxy]methyl}piperidin-1-yl)ethyl}-6-fluorobenzamide]
0.0378 |  | 0.0667 | Cc1cnc(OCC2CCN(C(CNC(=O)c3c(F)cccc3Cl)c3scnc3C(F)F)CC2)nc1 (centres unmarked) [Example 100, 2-Chloro-N-{2-[4-(difluoromethyl)-1,3-thiazol-5-yl]-2-(4-{[(5-methylpyrimidin-2-yl)oxy]methyl}piperidin-1-yl)ethyl}-6-fluorobenzamide]
0.032 |  | 0.0338 | O=C(NCC(c1scnc1C(F)F)N1CCC(COc2ccc(F)cn2)CC1)c1c(F)cccc1Cl (centres unmarked) [Example 102, 2-Chloro-N-{2-[4-(difluoromethyl)-1,3-thiazol-5-yl]-2-(4-{[(5-fluoropyridin-2-yl)oxy]methyl}piperidin-1-yl)ethyl}-6-fluorobenzamide]
0.0484 |  | 0.0304 | O=C(NCC(c1scnc1C(F)F)N1CCC(COc2cncc(F)n2)CC1)c1c(F)cccc1Cl (centres unmarked) [Example 105, 2-Chloro-N-{2-[4-(difluoromethyl)-1,3-thiazol-5-yl]-2-(4-{[(6-fluoropyrazin-2-yl)oxy]methyl}piperidin-1-yl)ethyl}-6-fluorobenzamide]
0.0552 |  | 0.0242 | O=C(NCC(c1scnc1C(F)F)N1CCC(COc2ccnc(F)n2)CC1)c1c(F)cccc1Cl (centres unmarked) [Example 107, 2-Chloro-N-{2-[4-(difluoromethyl)-1,3-thiazol-5-yl]-2-(4-{[(2-fluoropyrimidin-4-yl)oxy]methyl}piperidin-1-yl)ethyl}-6-fluorobenzamide]
0.0256 |  | 0.0132 | N#Cc1cccnc1OCC1CCN(C(CNC(=O)c2c(F)cccc2Cl)c2scnc2C(F)F)CC1 (centres unmarked) [Example 108, 2-Chloro-N-[2-(4-{[(3-cyanopyridin-2-yl)oxy]methyl}piperidin-1-yl)-2-[4-(difluoromethyl)-1,3-thiazol-5-yl]ethyl]-6-fluorobenzamide]
0.0249 |  | 0.0192 | N#Cc1cccc(OCC2CCN(C(CNC(=O)c3c(F)cccc3Cl)c3scnc3C(F)F)CC2)n1 (centres unmarked) [Example 109, 2-Chloro-N-[2-(4-{[(6-cyanopyridin-2-yl)oxy]methyl}piperidin-1-yl)-2-[4-(difluoromethyl)-1,3-thiazol-5-yl]ethyl]-6-fluorobenzamide]
0.0225 |  | 0.0161 | N#Cc1ccncc1OCC1CCN(C(CNC(=O)c2c(F)cccc2Cl)c2scnc2C(F)F)CC1 (centres unmarked) [Example 111, 2-Chloro-N-[2-(4-{[(4-cyanopyridin-3-yl)oxy]methyl}piperidin-1-yl)-2-[4-(difluoromethyl)-1,3-thiazol-5-yl]ethyl]-6-fluorobenzamide]
0.0385 |  | 0.0175 | Cc1c(F)ncnc1OCC1CCN(C(CNC(=O)c2c(F)cccc2Cl)c2scnc2C(F)F)CC1 (centres unmarked) [Example 113, 2-Chloro-N-{2-[4-(difluoromethyl)-1,3-thiazol-5-yl]-2-(4-{[(6-fluoro-5-methylpyrimidin-4-yl)oxy]methyl}piperidin-1-yl)ethyl}-6-fluorobenzamide]
0.0507 |  | 0.0372 | O=C(NCC(c1scnc1C(F)F)N1CCC(COc2nccc(C(F)(F)F)n2)CC1)c1c(F)cccc1Cl (centres unmarked) [Example 114, 2-Chloro-N-{2-[4-(difluoromethyl)-1,3-thiazol-5-yl]-2-[4-({[4-(trifluoromethyl)pyrimidin-2-yl]oxy}methyl)piperidin-1-yl]ethyl}-6-fluorobenzamide]
0.0745 |  | 0.0443 | O=C(NCC(c1scnc1C(F)F)N1CCC(COc2cc(C(F)(F)F)ncn2)CC1)c1c(F)cccc1Cl (centres unmarked) [Example 115, 2-Chloro-N-{2-[4-(difluoromethyl)-1,3-thiazol-5-yl]-2-[4-({[6-(trifluoromethyl)pyrimidin-4-yl]oxy}methyl)piperidin-1-yl]ethyl}-6-fluorobenzamide]
0.0482 |  | 0.0358 | O=C(NCC(c1scnc1C(F)F)N1CCC(COc2ccn3nccc3n2)CC1)c1c(F)cccc1Cl (centres unmarked) [Example 117, 2-Chloro-N-{2-[4-(difluoromethyl)-1,3-thiazol-5-yl]-2-[4-({pyrazolo[1,5-a]pyrimidin-5-yloxy}methyl)piperidin-1-yl]ethyl}-6-fluorobenzamide]
0.214 |  | 0.256 | O=C(NCC(c1scnc1C(F)F)N1CCC(COc2cncc3nncn23)CC1)c1c(F)cccc1Cl (centres unmarked) [Example 118, 2-Chloro-N-{2-[4-(difluoromethyl)-1,3-thiazol-5-yl]-2-[4-({[1,2,4]triazolo[4,3-a]pyrazin-5-yloxy}methyl)piperidin-1-yl]ethyl}-6-fluorobenzamide]
0.0325 |  | 0.0164 | O=C(NCC(c1scnc1C(F)F)N1CCC(COc2ncccc2Cl)CC1)c1c(F)cccc1Cl (centres unmarked) [Example 120, 2-Chloro-N-[2-(4-{[(3-chloropyridin-2-yl)oxy]methyl}piperidin-1-yl)-2-[4-(difluoromethyl)-1,3-thiazol-5-yl]ethyl]-6-fluorobenzamide]
0.0396 |  | 0.0442 | N#Cc1cnccc1OCC1CCN(C(CNC(=O)c2c(F)cccc2Cl)c2scnc2C(F)F)CC1 (centres unmarked) [Example 122, 2-Chloro-N-[2-(4-{[(3-cyanopyridin-4-yl)oxy]methyl}piperidin-1-yl)-2-[4-(difluoromethyl)-1,3-thiazol-5-yl]ethyl]-6-fluorobenzamide]
0.0365 |  | 0.0347 | O=C(NCC(c1scnc1C(F)F)N1CCC(COc2cc(F)ccn2)CC1)c1c(F)cccc1Cl (centres unmarked) [Example 126, 2-chloro-N-{2-[4-(difluoromethyl)-1,3-thiazol-5-yl]-2-(4-{[(4-fluoropyridin-2-yl)oxy]methyl}piperidin-1-yl)ethyl}-6-fluorobenzamide]
